Measurements as given in ChEMBL document CHEMBL1201862, “PubChem BioAssay data set” (2004).
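Interpolation was linear, between the two tested concentrations surrounding the appropriate level; five concentrations were tested over 48 hours in 96-well plates. GI50 marks 50% less growth.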 The source made the active and inactive calls. Cut-off read from the data, not from the text of the source: active = GI50 up to about 1.1 µM and inactive = higher.

What was measured:
Assay in all cases: NCI-60 cell line screen, 48 h
SN12C = tested on: SN12C
NCI-H460 = tested on: NCI-H460
HCT-15 = tested on: HCT-15
KM12 = tested on: KM12
DMS-114 = tested on: DMS-114
Malme-3M = tested on: Malme-3M
EKVX = tested on: EKVX
LXFL 529 = tested on: LXFL 529
IGROV-1 = tested on: IGROV-1
CCRF-CEM = tested on: CCRF-CEM
CAKI-1 = tested on: CAKI-1
DMS-273 = tested on: DMS-273
SK-MEL-2 = tested on: SK-MEL-2
A498 = tested on: A498
HL-60 = tested on: HL-60
A549 = tested on: A549
SR = tested on: SR
M19-MEL = tested on: M19-MEL
HCC 2998 = tested on: HCC 2998
UO-31 = tested on: UO-31
OVCAR-4 = tested on: OVCAR-4
HOP-62 = tested on: HOP-62
DLD-1 = tested on: DLD-1
KM-20L2 = tested on: KM-20L2
NCI-H522 = tested on: NCI-H522
SF-295 = tested on: SF-295
SNB-75 = tested on: SNB-75
SNB-78 = tested on: SNB-78
UACC-257 = tested on: UACC-257
SW-620 = tested on: SW-620
UACC-62 = tested on: UACC-62
OVCAR-3 = tested on: OVCAR-3
SF-268 = tested on: SF-268
LOX IMVI = tested on: LOX IMVI
HOP-92 = tested on: HOP-92
OVCAR-5 = tested on: OVCAR-5
ACHN = tested on: ACHN
786-0 = tested on: 786-0
SK-MEL-5 = tested on: SK-MEL-5
M14 = tested on: M14
TK-10 = tested on: TK-10
NCI-H226 = tested on: NCI-H226
U-251 = tested on: U-251
MOLT-4 = tested on: MOLT-4
SK-OV-3 = tested on: SK-OV-3
NCI-H23 = tested on: NCI-H23
HT-29 = tested on: HT-29
K562 = tested on: K562
COLO 205 = tested on: COLO 205
SF-539 = tested on: SF-539
HCT-116 = tested on: HCT-116
RPMI-8226 = tested on: RPMI-8226
OVCAR-8 = tested on: OVCAR-8
SK-MEL-28 = tested on: SK-MEL-28

## COc1cc2oc(-c3ccccc3)cc(=O)c2c(O)c1C
SN12C
  GI50: > 100 µM (inactive)
NCI-H460
  GI50: > 100 µM (inactive)
HCT-15
  GI50: > 100 µM
KM12
  GI50: > 100 µM (inactive)
DMS-114
  GI50: > 100 µM (inactive)
Malme-3M
  GI50: > 100 µM (inactive)
EKVX
  GI50: > 100 µM (inactive)
LXFL 529
  GI50: > 100 µM (inactive)
IGROV-1
  GI50: > 100 µM (inactive)
CCRF-CEM
  GI50: > 100 µM (inactive)
CAKI-1
  GI50: > 100 µM (inactive)
DMS-273
  GI50: > 100 µM (inactive)
SK-MEL-2
  GI50: > 100 µM (inactive)
A498
  GI50: > 100 µM (inactive)
HL-60
  GI50: > 100 µM (inactive)
A549
  GI50: > 100 µM (inactive)
SR
  GI50: > 100 µM (inactive)
M19-MEL
  GI50: > 100 µM (inactive)
HCC 2998
  GI50: > 100 µM (inactive)
UO-31
  GI50: > 100 µM (inactive)
OVCAR-4
  GI50: > 100 µM (inactive)
HOP-62
  GI50: > 100 µM (inactive)
DLD-1
  GI50: > 100 µM (inactive)
KM-20L2
  GI50: > 100 µM (inactive)
NCI-H522
  GI50: > 100 µM (inactive)
SF-295
  GI50: > 100 µM (inactive)
SNB-75
  GI50: > 100 µM (inactive)
SNB-78
  GI50: > 100 µM (inactive)
UACC-257
  GI50: > 100 µM (inactive)
SW-620
  GI50: > 100 µM (inactive)
UACC-62
  GI50: > 100 µM (inactive)
OVCAR-3
  GI50: > 100 µM (inactive)
SF-268
  GI50: > 100 µM (inactive)
LOX IMVI
  GI50: > 100 µM (inactive)
HOP-92
  GI50: 27.4 µM (inactive)
OVCAR-5
  GI50: > 100 µM (inactive)
ACHN
  GI50: > 100 µM (inactive)
786-0
  GI50: > 100 µM (inactive)
SK-MEL-5
  GI50: > 100 µM (inactive)
M14
  GI50: > 100 µM (inactive)
TK-10
  GI50: > 100 µM (inactive)
NCI-H226
  GI50: > 100 µM (inactive)
U-251
  GI50: > 100 µM (inactive)
MOLT-4
  GI50: > 100 µM (inactive)
SK-OV-3
  GI50: > 100 µM (inactive)
NCI-H23
  GI50: > 100 µM (inactive)
HT-29
  GI50: > 100 µM (inactive)
K562
  GI50: > 100 µM (inactive)
COLO 205
  GI50: > 100 µM (inactive)
SF-539
  GI50: > 100 µM (inactive)
HCT-116
  GI50: > 100 µM (inactive)
RPMI-8226
  GI50: > 100 µM (inactive)
OVCAR-8
  GI50: > 100 µM (inactive)
SK-MEL-28
  GI50: > 100 µM (inactive)
